Like-named read-outs stand apart in the source and are kept apart here.
Key:
[1] = tested on: NCI's 60 human tumor cell line; assay: NCI 60 human tumor cell line in vitro screen (average / whole panel); assay type: cell-based; conditions: calculated from all cell lines tested, molar concentrations, read-out: average log GI50 (converted)
[2] = tested on: HL-60(TB) leukemia cell line; assay: cells; assay type: cell-based; conditions: Homo sapiens; for IC (TGI): HL-60, H-60 cell line, range over four compounds, read-out: log TGI; for GI50: HL-60(TB), read-out: Cytotoxicity log GI50 (converted)
[3] = tested on: NCI-H460 non-small cell lung cancer cell line; assay: NCI in vitro screen, non-small cell lung cancer NCI-H460; assay type: cell-based; conditions: Homo sapiens, read-out: Cytotoxicity log GI50 (converted)
[4] = tested on: HCT-116 colon cancer cell line; assay: NCI in vitro screen, colon cancer HCT-116; assay type: cell-based; conditions: Homo sapiens; HCT-1.16 (head); HCT-116 (footnote); read-out: Cytotoxicity log GI50 (converted)
[5] = tested on: SF-295 CNS cancer cell line; assay: NCI in vitro screen, CNS cancer SF-295; assay type: cell-based; conditions: Homo sapiens, read-out: Cytotoxicity log GI50 (converted)
[6] = tested on: U-251 CNS cancer cell line; assay: NCI in vitro screen, CNS cancer U-251; assay type: cell-based; conditions: Homo sapiens, read-out: Cytotoxicity log GI50 (converted)
[7] = tested on: SK-MEL-5 melanoma cell line; assay: NCI in vitro screen, melanoma SK-MEL-5; assay type: cell-based; conditions: Homo sapiens, read-out: Cytotoxicity log GI50 (converted)
Description: (§1) Compounds 41-51 and 53-68 were submitted to NCI and assayed in the NCI's in vitro disease-oriented antitumor screen, which involves determination of a test compound's effects on the growth of approximately 60 human tumor cell lines. See, M. R. Boyd, et al. In Cancer: Principles and Practice of Oncology Updates; De Vita, V. T., Hellman, S., Rosenberg, S. A., Eds; J. B. Lippincoft: Philadelphia, pp 1-12 (1989); and A. Monks, et al. J. Natl. Cancer Inst. 83:757 (1991). These lines include leukemia, non-small cell lung, colon, central nervous system (CNS), melanoma, ovarian, renal, prostate, and breast cancers.
(§2) Compounds 29'-51' were submitted to NCI and assayed in the NCI's in vitro disease-oriented antitumor screen, using the techniques described in Example 5. This assay involves determinations of a test agent's effect on growth parameters against a panel of approximately 60 human tumor cell lines, derived largely from solid tumors, including non-small cell lung, colon, central nervous system, renal, ovarian, prostate, and breast cancers, plus a few leukemia cell lines. The cytotoxic effects of each compound are obtained as GI50 or […] values, which represent the molar drug concentrations required to cause half growth inhibition and total growth inhibition, respectively. The results are expressed for each cell line as average log GI50 values in Table 4, as log GI50 values in Table 5, and as log TGI values and average log TGI values in Table 6.

[8] = tested on: OVCAR-3 ovarian cancer cell line; assay: NCI in vitro screen, ovarian cancer OVCAR-3; assay type: cell-based; conditions: Homo sapiens, read-out: Cytotoxicity log GI50 (converted)
[9] = tested on: 786-0 renal cancer cell line; assay: NCI in vitro screen, renal cancer 786-0; assay type: cell-based; conditions: Homo sapiens, read-out: Cytotoxicity log GI50 (converted)
Description: as §1, §2

[10] = tested on: PC-3 prostate cancer cell line; assay: NCI in vitro screen, prostate cancer PC-3; assay type: cell-based; conditions: Homo sapiens, read-out: Cytotoxicity log GI50 (converted)
Description: as §1, §2

[11] = tested on: MDA-MB-435 breast cancer cell line; assay: NCI in vitro screen, breast cancer MDA-MB-435; assay type: cell-based; conditions: Homo sapiens; for IC (TGI): range over four compounds and two cell lines, read-out: log TGI; for GI50: read-out: Cytotoxicity log GI50 (converted)
[12] = tested on: MDA-N breast cancer cell line; assay: NCI in vitro screen, breast cancer MDA-N; assay type: cell-based; conditions: Homo sapiens; for IC (TGI): range over four compounds and two cell lines, read-out: log TGI; for GI50: read-out: Cytotoxicity log GI50 (converted)
Description: as §1, §2

[13] = tested on: NCI-H226 cell line; assay: NCI in vitro screen, NCI-H226; assay type: cell-based; conditions: Homo sapiens, range over four compounds, read-out: log TGI
Description: as §1

[14] = tested on: tubulin; assay: Tubulin polymerization assay; assay type: biochemical, bovine
Procedure: Electrophoretically homogeneous bovine brain tubulin was purified as described in E. Hamel, et al. Biochemistry 23:4173 (1984).
The tubulin polymerization assay was performed as described in S. Kuo, et al. J. Med. Chem. 36:1146 (1993); L. Li, et al. J. Med. Chem. 37:1126 (1994); and L. Li J. Med. Chem. 37:3400 (1994). In brief, tubulin at 1.2 mg/ml (12 μM) was preincubated for 15 min at 26° C. in a 0.24-ml volume of 0.8 M monosodium glutamate (pH 6.6 with NaOH in a 2 M stock solution) with varying drug concentrations. The drug stock solutions were in DMSO, and the final solvent concentration was 4 % (v/v). All concentrations are in terms of the final reaction volume (0.25 ml). The reaction mixtures were chilled on ice, and 10 μl of 10 mM GTP was added to each reaction mixture. Samples were transferred to cuvettes held at 0° C. by an electronic temperature controller in Gilford spectrophotometers. Baselines were established at 350 nm, and polymerization initiated by a temperature jump to 26° C. The jump took about 50 sec to complete. After 20 min, turbidity readings were recorded, and the temperature controller was set to 0C. When depolymerization was complete, turbidity readings were again recorded. […] IC50 values were obtained graphically from inhibition of polymerization by different drug concentrations.
Electrophoretically, homogeneous bovine brain tubulin was purified as described in Example 6.
The tubulin polymerization assay was performed as described in Example 6.

[15] = Tables 1 and 4, read-out: ITP HC50 ± SD (Inhibition of Tubulin Polymerization)
[16] = read-out: IC50, inhibition of tubulin polymerization

| Structure (SMILES) | GI50 [1] [µM] | IC (TGI) [2] [µM] | GI50 [2] [µM] | GI50 [3] [µM] | GI50 [4] [µM] | GI50 [5] [µM] | GI50 [6] [µM] | GI50 [7] [µM] | GI50 [8] [µM] | GI50 [9] [µM] | GI50 [10] [µM] | IC (TGI) [11] [µM] | GI50 [11] [µM] | IC (TGI) [12] [µM] | GI50 [12] [µM] | IC (TGI) [13] [µM] | IC50 [14, 15] [µM] | IC50 [14, 16] [µM] |
| --- | --- | --- | --- | --- | --- | --- | --- | --- | --- | --- | --- | --- | --- | --- | --- | --- | --- | --- |
| COc1cccc(-c2cc(=O)c3cccnc3[nH]2)c1 [Compound 44] | 0.135 | 0.0398 to 0.0646 | 0.0162 | 0.0912 | 0.0363 | 0.0525 | 0.055 | 0.0537 | 0.055 | 0.0617 | 0.0933 | 0.0214 to 0.0398 | < 0.01 | 0.0214 to 0.0398 | < 0.01 | 0.0759 to 0.692 | – | – |
| COc1cccc(-c2cc(=O)c3cc(C)cnc3[nH]2)c1 [Compound 46] | 0.0955 | 0.0398 to 0.0646 | 0.0191 | 0.0437 | 0.0224 | 0.0372 | 0.0447 | 0.0257 | 0.0417 | 0.0372 | 0.0427 | 0.0214 to 0.0398 | < 0.01 | 0.0214 to 0.0398 | < 0.01 | 0.0759 to 0.692 | – | – |
| COc1cccc(-c2cc(=O)c3ccc(C)nc3[nH]2)c1 [Compound 47] | 0.0575 | 0.0398 to 0.0646 | 0.0182 | 0.0437 | 0.0468 | 0.0302 | 0.0537 | 0.0339 | 0.0224 | 0.0537 | 0.0331 | 0.0214 to 0.0398 | < 0.01 | 0.0214 to 0.0398 | 0.011 | 0.0759 to 0.692 | – | – |
| O=C1CC(c2ccc(F)cc2)=Nc2ncccc21 [Compound 56, 2-(4'-Fluorophenyl)-1,8-naphthyridin-4-one] | 45.7 | – | 12.9 | 34.7 | 42.7 | 50.1 | 47.9 | 30.2 | 45.7 | 44.7 | 45.7 | – | 12 | – | 14.1 | – | > 40 | – |
| Cc1ccnc2c1C(=O)CC(c1ccc(F)cc1)=N2 [Compound 57, 2-(4'-Fluorophenyl)-5-methyl-1,8-naphthyridin-4-one] | 38 | – | 4.79 | 32.4 | 16.2 | 79.4 | 36.3 | 16.2 | 56.2 | 33.9 | 51.3 | – | 2.88 | – | 3.55 | – | 18 ± 2 | 11 to 32 |
| Cc1cnc2c(c1)C(=O)CC(c1ccc(F)cc1)=N2 [Compound 58, 2-(4'-Fluorophenyl)-6-methyl-1,8-naphthyridin-4-one] | 26.3 | – | 2.4 | 33.9 | 24 | 29.5 | 25.1 | 21.9 | 22.4 | 32.4 | 25.7 | – | 2.63 | – | 3.02 | – | 20 ± 2 | 11 to 32 |
| Cc1ccc2c(n1)N=C(c1ccc(F)cc1)CC2=O [Compound 59, 2-(4'-Fluorophenyl)-7-methyl-1,8-naphthyridin-4-one] | 32.4 | – | 14.1 | 33.9 | 33.9 | 37.2 | 37.2 | 31.6 | 32.4 | 41.7 | 20.9 | – | 5.89 | – | 11.7 | – | > 40 | > 40 |
| Cc1cc(C)c2c(n1)N=C(c1ccc(F)cc1)CC2=O [Compound 60, 2-(4'-Fluorophenyl)-5,7-dimethyl-1,8-naphthyridin-4-one] | 40.7 | – | 15.5 | 51.3 | 50.1 | 50.1 | 95.5 | 26.3 | 43.7 | 79.4 | 30.2 | – | 18.6 | – | 25.1 | – | > 40 | > 40 |
| O=C1CC(c2ccc(F)cc2)=Nc2ncc(Cl)cc21 [Compound 61, 2-(4'-Fluorophenyl)-6-chloro-1,8-naphthyridin-4-one] | 21.9 | – | 3.89 | 30.2 | 17 | 21.4 | 29.5 | 6.61 | 17.4 | 32.4 | 21.9 | – | 2.57 | – | 2.95 | – | 16 ± 3 | 11 to 32 |
| O=C1CC(c2ccc(Cl)cc2)=Nc2ncccc21 [Compound 62, 2-(4'-Chlorophenyl)-1,8-naphthyridin-4-one] | 38.9 | – | 16.6 | 38 | 32.4 | 40.7 | 39.8 | 28.8 | 23.4 | 33.9 | 47.9 | – | 5.89 | – | 8.32 | – | 22 ± 0.1 | 11 to 32 |
| Cc1ccnc2c1C(=O)CC(c1ccc(Cl)cc1)=N2 [Compound 63, 2-(4'-Chlorophenyl)-5-methyl-1,8-naphthyridin-4-one] | 5.13 | – | 1.78 | 3.72 | 3.72 | 5.37 | 4.57 | 3.47 | 3.16 | 3.98 | 2.88 | – | 0.759 | – | 1.32 | – | 4.8 ± 1.4 | 1.5 to 9.8 |
| Cc1cnc2c(c1)C(=O)CC(c1ccc(Cl)cc1)=N2 [Compound 64, 2-(4'-Chlorophenyl)-6-methyl-1,8-naphthyridin-4-one] | 3.72 | – | 2.24 | 3.89 | 2.82 | 2.4 | 3.02 | 2.19 | 2.24 | 6.31 | 1.15 | – | 0.603 | – | 0.562 | – | 2 ± 0.01 | 1.5 to 9.8 |
| Cc1ccc2c(n1)N=C(c1ccc(Cl)cc1)CC2=O [Compound 65, 2-(4'-Chlorophenyl)-7-methyl-1,8-naphthyridin-4-one] | 4.9 | – | 2.95 | 4.47 | 3.31 | 4.57 | 4.79 | 4.37 | 2.57 | 6.31 | 1.66 | – | 0.912 | – | 1 | – | 11 ± 0.7 | 11 to 32 |
| Cc1cc(C)c2c(n1)N=C(c1ccc(Cl)cc1)CC2=O [Compound 66, 2-(4'-Chlorophenyl)-5,7-dimethyl-1 ,8-naphthyridin-4-one] | 19.5 | – | 25.1 | 22.4 | 14.8 | 16.2 | 30.2 | 14.1 | 18.2 | 21.4 | 6.31 | – | 4.07 | – | 3.63 | – | 32 ± 8 | 11 to 32 |

Reference: patent publication US6229016A, “Method for treating tumors using 2-aryl-naphthyridin-4-ones” (priority 2000, dated 2001)
